According to patent publication US20210254056A1, “IDENTIFICATION AND TARGETED MODULATION OF GENE SIGNALING NETWORKS” (CAMP4 THERAPEUTICS CORPORATION, priority 2017, published 2021):
Where two headings read alike, the source gives them in different places.

Tests used:
[1] = system: primary human hepatocytes
[2] = system: primary human hepatocytes; test: RNA-seq of primary human hepatocytes treated with 39 small molecules (pilot and validation)

CN(C)CCC=C1c2ccccc2COc2ccccc21 [MT-723, Adapin (doxepin)]
Log2 fold changes in gene expression: CYP2C19 [1]: 0.18
Log2 fold changes in gene expression: CYP3A4 [1]: 0.14
Log2 fold changes in gene expression: ACADVL [2]: 0
Log2 fold changes in gene expression: ACAT2 [2]: −0.03
Log2 fold changes in gene expression: ACSL1 [2]: 0.04
Log2 fold changes in gene expression: ACSL5 [2]: 0.03
Log2 fold changes in gene expression: AGPAT2 [2]: −0.05
Log2 fold changes in gene expression: AGTR1 [2]: 0.03
Log2 fold changes in gene expression: AHSG [2]: −0.07
Log2 fold changes in gene expression: ALAS1 [2]: −0.01
Log2 fold changes in gene expression: AMACR [2]: −0.11
Log2 fold changes in gene expression: ARG1 [2]: 0.07
Log2 fold changes in gene expression: CA2 [2]: −0.08
Log2 fold changes in gene expression: CA12 [2]: 0.29
Log2 fold changes in gene expression: CIDEC [2]: 0.09
Log2 fold changes in gene expression: COL1A1 [2]: −0.14
Log2 fold changes in gene expression: CPS1 [2]: −0.04
Log2 fold changes in gene expression: CPT1A [2]: 0.06
Log2 fold changes in gene expression: CPT2 [2]: −0.09
Log2 fold changes in gene expression: CYP21A2 [2]: 0.08
Log2 fold changes in gene expression: ECH1 [2]: −0.04
Log2 fold changes in gene expression: ENO3 [2]: −0.21
Log2 fold changes in gene expression: ETFDH [2]: 0.05
Log2 fold changes in gene expression: FABP1 [2]: −0.08
Log2 fold changes in gene expression: G6PC [2]: 0.03
Log2 fold changes in gene expression: GHR [2]: −0.05
Log2 fold changes in gene expression: GLA [2]: 0.01
Log2 fold changes in gene expression: HGD [2]: 0
Log2 fold changes in gene expression: HMGCR [2]: 0.02
Log2 fold changes in gene expression: HMGCS2 [2]: −0.04
Log2 fold changes in gene expression: HMOX1 [2]: 0.22
Log2 fold changes in gene expression: HOGA1 [2]: 0.03
Log2 fold changes in gene expression: HPGD [2]: 0.05
Log2 fold changes in gene expression: IFT27 [2]: 0
Log2 fold changes in gene expression: LDHA [2]: −0.09
Log2 fold changes in gene expression: LPIN2 [2]: 0.03
Log2 fold changes in gene expression: MOGAT2 [2]: 0.01
Log2 fold changes in gene expression: NCF2 [2]: −0.21
Log2 fold changes in gene expression: PCSK9 [2]: 0.11
Log2 fold changes in gene expression: POR [2]: 0.1
Log2 fold changes in gene expression: RMRP [2]: −0.14
Log2 fold changes in gene expression: SLC2A2 [2]: −0.04
Log2 fold changes in gene expression: SLC6A6 [2]: 0.17
Log2 fold changes in gene expression: SLC25A20 [2]: −0.1
Log2 fold changes in gene expression: SLC37A4 [2]: −0.17
Log2 fold changes in gene expression: SLC51B [2]: −0.26
Log2 fold changes in gene expression: SULT2A1 [2]: 0.03
Log2 fold changes in gene expression: TAT [2]: −0.1
Log2 fold changes in gene expression: TDO2 [2]: −0.14
Log2 fold changes in gene expression: TMEM135 [2]: 0.05
Log2 fold changes in gene expression: TNFSF11 [2]: −0.11
Log2 fold changes in gene expression: VLDLR [2]: 0.01
significant modulation of gene expression [2]: significantly (p-value≤0.05) modulate

CCc1oc2ccccc2c1C(=O)c1cc(Br)c(O)c(Br)c1 [MT-220, Benzbromarone]
Log2 fold changes in gene expression: CYP2C19 [1]: 0.57
Log2 fold changes in gene expression: CYP3A4 [1]: 0.87
cytotoxicity in hepatocytes [1]: cytotoxic
significant modulation of gene expression ([2]; RNA-seq, p-value≤0.05, primary human hepatocytes, the modulated genes are listed in the block): significantly (p-value≤0.05) modulate
Number (#) of genes having significantly changed expression ([2]; pilot RNA-seq study of Example 2, significance: FPKM≥0.5, log 2(fold change)≥1, q-value ≤0.05): 119
